Results on 5 compounds are retold here after ChEMBL document CHEMBL1148997, “Stereochemical considerations in relation to the pharmacological activity of Pterotaberna alkaloids” (J Nat Prod, 1985).

Usually inhibition stands for how much of the control response was suppressed.

Activity calls are given as the source filed them. The calls are words filed in the database; no cut-off is given here.

In assay [1] the test system is Ileum. Description: Antihistaminic effect in guinea pig ileum assessed as inhibition of histamine-induced contraction by Schild plot. Type of assay: functional, tissue-based. The note with it: Cavia porcellus, read-out: pA2 (converted).
Assay [2] has as its system Ileum. Briefly: Anticholinergic effect in guinea pig ileum assessed as inhibition of acetylcholine-induced contraction. The assay is classed as functional.
Assay [3] relates to Ileum. Briefly: Inhibition of electrically-induced twitch contraction in guinea pig ileum at 3.4 uM. The note with it: Cavia porcellus. The assay is classed as functional, tissue-based.
For assay [4], the system named is Ileum. Briefly: Inhibition of electrically-induced twitch contraction in guinea pig ileum at 1 ug/ml after 15 mins. Type of assay: functional. The note with it: Cavia porcellus, 0.25 h.
Assay [5] concerns Ileum. Briefly: Inhibition of electrically-induced twitch contraction in guinea pig ileum at 3.2 uM. The assay is classed as functional, tissue-based. The note with it: Cavia porcellus.
The test system of assay [6] is Ileum. Briefly: Antihistaminic effect in guinea pig ileum assessed as inhibition of histamine-induced contraction. Type of assay: functional, Cavia porcellus.
The subject of assay [7] is Ileum. Description: Anticholinergic effect in guinea pig ileum assessed as inhibition of acetylcholine-induced contraction at 1 uM. Type of assay: functional, tissue-based. The note with it: Cavia porcellus.
Assay [8] has as its system Ileum. Briefly: Anticholinergic effect in guinea pig ileum assessed as inhibition of acetylcholine-induced contraction at 3.4 uM. The note with it: Cavia porcellus. Type of assay: functional, tissue-based.
Assay [9] deals with Ileum. Description: Inhibition of electrically-induced twitch contraction in guinea pig ileum at 1 uM. Type of assay: functional, tissue-based. The note with it: Cavia porcellus.
The subject of assay [10] is Ileum. Description: Inhibition of electrically-induced twitch contraction in guinea pig ileum at 3.4 uM preincubated for 15 mins before addition of naloxone in presence of naloxone. Type of assay: functional, tissue-based. The note with it: Cavia porcellus.
The subject of assay [11] is Ileum. Briefly: Antihistaminic effect in guinea pig ileum assessed as inhibition of histamine-induced contraction at 34 uM. The assay is classed as functional, tissue-based. The note with it: Cavia porcellus.
In the next assay the test system is Intestine. Description: Anticholinergic effect in rat intestine assessed as inhibition of acetylcholine-induced contraction. Type of assay: functional, tissue-based. The settings on record: read-out: pA2 (converted).

Consider `C/C=C1/CN(C)C[C@@H]2Cc3c([nH]c4ccccc34)C(=O)C[C@@H]12`, for which the Kb in the assay with Ileum [1] is 0.282 µM. Further, the result in the assay on Ileum [2] (Cavia porcellus) was inactive. The result in the assay with Ileum [3] was Active. Also, the inhibition at 1 µg/mL in the assay with Ileum [4] was 20%.
Regarding `C/C=C1/CN(C)C[C@H]2C(=O)c3c([nH]c4ccccc34)C(=O)C[C@@H]12`, the outcome in the assay with Ileum [5] was inactive.
On the same count and under the same terms, the result for `C/C=C1/C[N+](C)([O-])C[C@H]2Cc3c([nH]c4ccccc34)C(=O)C[C@@H]12` (stereo partly specified) reads “inactive”.
Turning to `C/C=C1/CN(C)C[C@H]2Cc3c([nH]c4ccccc34)C(=O)C[C@@H]12` [METHUENINE], the pD2 in the assay on Ileum [6] came to 5.13; in the assay on Ileum [2] it was 5.1. In addition, the result with Ileum [7], with Ileum [8], in the assay with Ileum [9], with Ileum [3], in the assay with Ileum [10] and with Ileum [11] was Active.
As to `COc1ccc(Cc2nccc3cc(OC)c(OC)cc23)cc1OC` [PAPAVERINE], the pD2 in the assay with Ileum [2] was found to be 5.08. Also, the Kb with Intestine was 15.8 µM.
